In data set [1] the test system is Rattus norvegicus. Put plainly: Recovery of Roc-induced neuromuscular block in Sprague-Dawley rat assessed as […] ratio (TOFr) >= 90% by measuring recovery time at 25 mg/kg, iv (reference value: 597 seconds). It is filed as functional.
Another data set concerns Rocuronium. Put plainly: Binding affinity to Rocuronium by Competition UV-Vis titration method.
For data set [2], the system named is Rattus norvegicus. Nature of the data set: Recovery of CisA-induced neuromuscular block in Sprague-Dawley rat assessed as […] ratio (TOFr) >= 90% by measuring recovery time at 80 mg/kg, iv (reference value: 784 seconds). Format: functional.
Data set [3] in a line: Water solubility of the compound measured at 25 degreeC. It is filed as physicochemical.
Data set [4] can be described thus: Toxicity in iv dosed Sprague-Dawley rat assessed as maximum tolerated dose measured upto 14 days. Format: organism-based. Conditions: in vivo, 336 h, time < 14 day.
Data set [5] is described as follows: Therapeutic index, ratio of toxicity in iv dosed Sprague-Dawley rat assessed as maximum tolerated dose to recovery of CisA-induced neuromuscular block in Sprague-Dawley rat assessed as […] ratio (TOFr) by measuring recovery time at 80 to 100 mg/kg, iv. Conditions: in vivo, dose 80-100 mg/kg, read-out: TI. It is filed as organism-based.
Data set [6] concerns Midazolium-based-macrocycle. Put plainly: Binding affinity to Midazolium-based-macrocycle by Competition UV-Vis titration method.
The test system of data set [7] is Rattus norvegicus. Nature of the data set: Recovery of CisA-induced neuromuscular block in Sprague-Dawley rat assessed as […] ratio (TOFr) >= 90% by measuring recovery time at 120 mg/kg, iv (reference value: 784 seconds). Format: functional.
In data set [8] the test system is Rattus norvegicus. Put plainly: Recovery of Pan-induced neuromuscular block in Sprague-Dawley rat assessed as […] ratio (TOFr) >= 90% by measuring recovery time at 25 mg/kg, iv (reference value: 3600 seconds). It is filed as functional.
The next data set concerns Pancuronium. Put plainly: Binding affinity to Pancuronium by Competition UV-Vis titration method.
For data set [9], the system named is Rattus norvegicus. Put plainly: Recovery of Vec-induced neuromuscular block in Sprague-Dawley rat assessed as […] ratio (TOFr) >= 90% by measuring recovery time at 25 mg/kg, iv (reference value: 525 seconds). It is filed as functional.
The next data set concerns Proflavine. Nature of the data set: Binding affinity to Proflavine by Competition UV-Vis titration method.
Another data set concerns Cisatracurium. Nature of the data set: Binding affinity to Cisatracurium by Competition UV-Vis titration method.
A short description of data set [10]: Therapeutic index, ratio of toxicity in iv dosed Sprague-Dawley rat assessed as maximum tolerated dose to recovery of Roc/Vec/Panc-induced neuromuscular block in Sprague-Dawley rat assessed as […] ratio (TOFr) by measuring recovery time at 25 mg/kg, iv. Conditions: in vivo, read-out: TI. Format: organism-based.
Another data set concerns Vecuronium. Nature of the data set: Binding affinity to Vecuronium by Competition UV-Vis titration method.
The next data set deals with Rhodamine 6G. Nature of the data set: Binding affinity to Rhodamine 6G by Competition UV-Vis titration method.
The test system of data set [11] is Trans-cydohexane-1,4-diartunonium dichloride. Nature of the data set: Binding affinity to Trans-[…] dichloride by Competition UV-Vis titration method.
Data set [12] deals with Rattus norvegicus. Nature of the data set: Recovery of IMC-1-induced neuromuscular block in Sprague-Dawley rat assessed as […] ratio (TOFr) >= 90% by measuring recovery time at 10 mg/kg, iv (reference value: 4021 seconds). Format: functional.
Data set [13] in a line: Solubility of the compound in sodium phosphate buffered water. It is filed as physicochemical.

Regarding `C[C@]12N3Cc4c(c(OCC(C(=O)[O-])C(=O)[O-])c5ccccc5c4OCC(C(=O)[O-])C(=O)[O-])CN1C(=O)N1CN4C(=O)N5CN6C(=O)N7CN8C(=O)N9Cc%10c(c(OCC(C(=O)[O-])C(=O)[O-])c%11ccccc%11c%10OCC(C(=O)[O-])C(=O)[O-])CN%10C(=O)N(CN%11C(=O)N(CN%12C(=O)N(CN(C3=O)[C@]12C)[C@@H]4[C@H]%125)[C@@H]6[C@H]%117)[C@]8(C)[C@@]9%10C.[Na+].[Na+].[Na+].[Na+].[Na+].[Na+].[Na+].[Na+]`, the Time in the data set with Rattus norvegicus [1] came out at 84 s.

Regarding `O=C(O)CCSC[C@H]1O[C@@H]2O[C@H]3[C@H](O)[C@@H](O)[C@@H](O[C@H]4[C@H](O)[C@@H](O)[C@@H](O[C@H]5[C@H](O)[C@@H](O)[C@@H](O[C@H]6[C@H](O)[C@@H](O)[C@@H](O[C@H]7[C@H](O)[C@@H](O)[C@@H](O[C@H]8[C@H](O)[C@@H](O)[C@@H](O[C@H]9[C@H](O)C(O)[C@@H](O[C@H]1[C@H](O)[C@H]2O)O[C@@H]9CSCCC(=O)O)O[C@@H]8CSCCC(=O)O)O[C@@H]7CSCCC(=O)O)O[C@@H]6CSCCC(=O)O)O[C@@H]5CSCCC(=O)O)O[C@@H]4CSCCC(=O)O)O[C@@H]3CSCCC(=O)O` (stereo not given in full), the Ka with Rocuronium is 1.05 10^7/M.

As for `CC[C@]12N3Cc4c(c(OCCCS(=O)(=O)[O-])c5ccccc5c4OCCCS(=O)(=O)[O-])CN1C(=O)N1CN4C(=O)N5CN6C(=O)N7CN8C(=O)N9Cc%10c(c(OCCCS(=O)(=O)[O-])c%11ccccc%11c%10OCCCS(=O)(=O)[O-])CN%10C(=O)N(CN%11C(=O)N(CN%12C(=O)N(CN(C3=O)[C@]12CC)[C@@H]4[C@H]%125)[C@@H]6[C@H]%117)[C@]8(CC)[C@@]9%10CC.[Na+].[Na+].[Na+].[Na+]`, the Time is 19 s with Rattus norvegicus [1] and 57 s with Rattus norvegicus [2]. The concentration in solution in data set [3] (solubility) was 670 mg/mL. Further, the maximal tolerated dose (MTD) in data set [4] stood at 500 mg/kg.

`O=C1N2Cc3c(OCCCS(=O)(=O)[O-])ccc(OCCCS(=O)(=O)[O-])c3CN3C(=O)N4CN5C(=O)N6CN7C(=O)N8CN9C(=O)N%10Cc%11c(OCCCS(=O)(=O)[O-])ccc(OCCCS(=O)(=O)[O-])c%11CN%11C(=O)N(CN%12C(=O)N(CN%13C(=O)N(CN1C41CCCCC231)[C@H]5[C@H]6%13)[C@H]7[C@H]8%12)C91CCCCC%10%111.[Na+].[Na+].[Na+].[Na+]` (stereo not given in full): the Time with Rattus norvegicus [1] was found to be 203 s. This compound registered a solubility in data set [3] of 520 mg/mL.

On to `CC[C@]12N3Cc4c(OCCCS(=O)(=O)[O-])ccc(OCCCS(=O)(=O)[O-])c4CN1C(=O)N1CN4C(=O)N5CN6C(=O)N7CN8C(=O)N9Cc%10c(OCCCS(=O)(=O)[O-])ccc(OCCCS(=O)(=O)[O-])c%10CN%10C(=O)N(CN%11C(=O)N(CN%12C(=O)N(CN(C3=O)[C@]12CC)[C@@H]4[C@H]%125)[C@@H]6[C@H]%117)[C@]8(CC)[C@@]9%10CC.[Na+].[Na+].[Na+].[Na+]`, for which, in the data set on Rattus norvegicus [1], the Time is 348 s. In data set [3], this compound showed a solubility of 750 mg/mL.

In the case of `COc1cc(OCCCS(=O)(=O)[O-])c2c(c1OCCCS(=O)(=O)[O-])CN1C(=O)N3CN4C(=O)N5CN6C(=O)N7CN8C(=O)N9Cc%10c(c(OCCCS(=O)(=O)[O-])cc(OC)c%10OCCCS(=O)(=O)[O-])CN%10C(=O)N(CN%11C(=O)N(CN%12C(=O)N(CN%13C(=O)N(C2)C1(C)C%133C)C4C%125)C6C%117)C8(C)C%109C.[Na+].[Na+].[Na+].[Na+]` (stereo not given), in the data set with Rattus norvegicus [1], the Time is reported as 40 s. The amount in solution in data set [3] (solubility) came to 870 mg/mL.

With `Cc1cc(OCCCS(=O)(=O)[O-])c2c(c1OCCCS(=O)(=O)[O-])CN1C(=O)N3CN4C(=O)N5CN6C(=O)N7CN8C(=O)N9Cc%10c(c(OCCCS(=O)(=O)[O-])cc(C)c%10OCCCS(=O)(=O)[O-])CN%10C(=O)N(CN%11C(=O)N(CN%12C(=O)N(CN%13C(=O)N(C2)C1(C)C%133C)C4C%125)C6C%117)C8(C)C%109C.[Na+].[Na+].[Na+].[Na+]` (mixture of isomers), the Time in the data set with Rattus norvegicus [1] amounted to 151 s. The solubility in [3] was 600 mg/mL.

`C[C@]12N3Cc4c(c(OCCC(=O)[O-])c5ccccc5c4OCCC(=O)[O-])CN1C(=O)N1CN4C(=O)N5CN6C(=O)N7CN8C(=O)N9Cc%10c(c(OCCC(=O)[O-])c%11ccccc%11c%10OCCC(=O)[O-])CN%10C(=O)N(CN%11C(=O)N(CN%12C(=O)N(CN(C3=O)[C@]12C)[C@@H]4[C@H]%125)[C@@H]6[C@H]%117)[C@]8(C)[C@@]9%10C.[Na+].[Na+].[Na+].[Na+]`: in the data set with Rattus norvegicus [1], the Time is listed as 95 s.

With `CC[C@]12N3Cc4c(c(OCCCS(=O)(=O)[O-])c(C)c(C)c4OCCCS(=O)(=O)[O-])CN1C(=O)N1CN4C(=O)N5CN6C(=O)N7CN8C(=O)N9Cc%10c(c(OCCCS(=O)(=O)[O-])c(C)c(C)c%10OCCCS(=O)(=O)[O-])CN%10C(=O)N(CN%11C(=O)N(CN%12C(=O)N(CN(C3=O)[C@]12CC)[C@@H]4[C@H]%125)[C@@H]6[C@H]%117)[C@]8(CC)[C@@]9%10CC.[Na+].[Na+].[Na+].[Na+]`, the figures for the Time with Rattus norvegicus [1] and with Rattus norvegicus [2] were 31 s and 130 s, respectively. The solubility in [3] was found to be 940 mg/mL.

Take `CN(C)C(=O)Oc1cccc([N+](C)(C)C)c1` [NEOSTIGMINE]: the Time worked out at 409 s in the data set with Rattus norvegicus [1] and 276 s in the data set with Rattus norvegicus [2].

`C[C@]12N3Cc4c(c(OCC(=O)[O-])c5ccccc5c4OCC(=O)[O-])CN1C(=O)N1CN4C(=O)N5CN6C(=O)N7CN8C(=O)N9Cc%10c(c(OCC(=O)[O-])c%11ccccc%11c%10OCC(=O)[O-])CN%10C(=O)N(CN%11C(=O)N(CN%12C(=O)N(CN(C3=O)[C@]12C)[C@@H]4[C@H]%125)[C@@H]6[C@H]%117)[C@]8(C)[C@@]9%10C.[Na+].[Na+].[Na+].[Na+]`: the Time in the data set on Rattus norvegicus [1] is 108 s.

In the case of `Cc1c(C)c(OCCCS(=O)(=O)[O-])c2c(c1OCCCS(=O)(=O)[O-])CN1C(=O)N3CN4C(=O)N5CN6C(=O)N7CN8C(=O)N9Cc%10c(c(OCCCS(=O)(=O)[O-])c(C)c(C)c%10OCCCS(=O)(=O)[O-])CN%10C(=O)N(CN%11C(=O)N(CN%12C(=O)N(CN%13C(=O)N(C2)[C@]1(C)[C@]%133C)[C@@H]4[C@@H]5%12)[C@@H]6[C@@H]7%11)[C@]8(C)[C@]%109C.[Na+].[Na+].[Na+].[Na+]`, the values for the selectivity ratio in [5] and in [10] were 18.8 and 60, respectively. The Ka in data set [6] was 119 10^7/M; in the data set on Pancuronium it was 51 10^7/M; with Rocuronium, 9.84 10^7/M; in the data set on Proflavine, 13 10^7/M; in the data set with Cisatracurium it was 0.13 10^7/M; in the data set on Vecuronium it was 2.92 10^7/M. Also, the Ka was 0.045 10^7/M with Rhodamine 6G and 0.069 10^7/M in data set [11]. In addition, the Time in the data set with Rattus norvegicus [7] is listed as 28 s; with Rattus norvegicus [8], 21 s; in the data set with Rattus norvegicus [1], 30 s; in the data set on Rattus norvegicus [9], 13 s; in the data set on Rattus norvegicus [2] it was 35 s; in the data set with Rattus norvegicus [12], 13 s. Further, the solubility was determined as 500 mg/mL in data set [3] and 563 mg/mL in [13]. For the same compound, the maximal tolerated dose (MTD) in data set [4] was 500 mg/kg.
